In ChEMBL document CHEMBL1154022, “Efficient synthesis of 3,3-diheteroaromatic oxindole analogues and their in vitro evaluation for spermicidal potential” (Bioorg Med Chem Lett, 2009):

Key:
[1] = system: Spermatozoa; test: Spermicidal activity in rat spermatozoa assessed as […]; format: functional; settings: read-out: MEC
[2] = Toxicity against rabbit erythrocytes assessed as hemolytic index; format: cell-based, Oryctolagus cuniculus; settings: erythrocyte

**Q.** Which minimal effective concentration [1] does the source give for `COc1ccc2[nH]cc(C3(c4c[nH]c5ccc(OC)cc45)C(=O)Nc4ccccc43)c2c1` here?
**A.** The minimal effective concentration was 340 µg/mL.

**Q.** What about the Activity [2] of the same compound?
**A.** The Activity was 3.3 mg/mL.

**Q.** Which minimal effective concentration [1] does the source give for `Cc1c(C2(c3[nH]c4ccccc4c3C)C(=O)Nc3ccccc32)[nH]c2ccccc12` here?
**A.** Its minimal effective concentration is 1000 µg/mL.

**Q.** With `O=C1Nc2ccccc2C1(c1c[nH]c2ccc(Br)cc12)c1c[nH]c2ccc(Br)cc12` as the compound, how does the minimal effective concentration [1] read?
**A.** Its minimal effective concentration is 3180 µg/mL.

**Q.** With `O=C1Nc2ccccc2C1(c1c[nH]c2ccccc12)c1c[nH]c2ccccc12` as the compound, how does the minimal effective concentration [1] read?
**A.** Its minimal effective concentration is 2400 µg/mL.

**Q.** With `O=C(O)Cc1c(C2(c3[nH]c4ccccc4c3CC(=O)O)C(=O)Nc3ccccc32)[nH]c2ccccc12` as the compound, how does the minimal effective concentration [1] read?
**A.** The minimal effective concentration was 530 µg/mL.

**Q.** For `Cc1[nH]c2ccccc2c1C1(c2c(C)[nH]c3ccccc23)C(=O)Nc2ccccc21`, which minimal effective concentration [1] is on record?
**A.** The minimal effective concentration was 2820 µg/mL.

**Q.** Which minimal effective concentration [1] does the source give for `O=C(O)c1[nH]c2ccccc2c1C1(c2c(C(=O)O)[nH]c3ccccc23)C(=O)Nc2ccccc21` here?
**A.** The minimal effective concentration was 1110 µg/mL.

**Q.** With `Cn1cc(C2(c3cn(C)c4ccccc34)C(=O)Nc3ccccc32)c2ccccc21` as the compound, how does the minimal effective concentration [1] read?
**A.** Its minimal effective concentration is 2360 µg/mL.

**Q.** For `O=C1Nc2ccccc2C1(c1ccc[nH]1)c1ccc[nH]1`, which minimal effective concentration [1] is on record?
**A.** Its minimal effective concentration is 3150 µg/mL.

**Q.** With `CCCCCCCCCc1ccc(OCCOCCOCCOCCOCCOCCOCCOCCOCCO)cc1` [NONOXYNOL 9] as the compound, how does the minimal effective concentration [1] read?
**A.** The minimal effective concentration was 500 µg/mL.
